Test [1] deals with T1, XeIF4E1a (Xenopus laevis, UniProt P48597).
T1 construct: made in house; host or cells: E. coli Rosetta2(DE3)
The experiment in a line: time-synchronized fluorescence titration of cap analogue binding. The following applies: for Kas + glycerol XeIF4E1a / Kas − glycerol XeIF4E1a: equilibrium association constant; for Kas − glycerol XeIF4E1a: buffer without glycerol. The text has this: (§1) The time-synchronized fluorescence titration method, widely used to determine the affinity constants of cap–eIF4E complexes [[20,22–26]], measures the quenching of the intrinsic fluorescence of tryptophan residues due to cap binding (Fig. S2). Knowledge of the equilibrium association constant Kas enables the calculation of the free-energy changes involved in the interaction between eIF4E and ligand, according to the standard equation ΔG° = − RTlnKas.
(§2) For human eIF4E1a and eIF4E1b and also for Xenopus eIF4E1a and its mutated forms, measurements were carried out using 0.1 μM protein in 50 mM Hepes/KOH (pH 7.2), 134.5 mM KCl, 0.5 mM EDTA and 1 mM DTT. For Xenopus eIF4E1b(ΔN27), the concentration was 0.2 μM and glycerol was added to the buffer to 10% (v/v) final concentration. […] Fluorescence of measured samples was excited at 280 nm (2.5 nm bandwidth) and detected at 337 nm or 330 nm (4 nm bandwidth), thus reducing the signal originated from the free cap analogues. Measurements were carried out on a LS-55 spectrofluorometer (Perkin Elmer Co.) using freshly prepared proteins, and the fluorescence intensities were corrected for sample dilution and the inner filter effect.
(§3) Equilibrium association constants (Kas) were determined by fitting the theoretical dependence of fluorescence intensity on the total concentration of the cap analogue to the experimental data points, according to the equation described previously (see Ref. [22] and Fig. S2c).
(§4) The final Kas was calculated as a weighted average of 2–6 independent titrations with the weights taken as the reciprocal of the numerical standard deviation squared. Numerical, nonlinear least-squares regression analysis was performed using Origin 6.0 (Microcal Software Inc.). Obtained association constants were used to determine the Gibbs free energy according to the standard equation ΔG° = − RTlnKas.

In test [2] the test system is XeIF4E1a. The test is described as above. The arrangement: species or system Xenopus laevis. The following applies: without glycerol.
From the text: as §1, §2, §3, §4

The target of test [3] is T2, heIF4E1a (Homo sapiens, UniProt P06730).
T2 construct: made in house; host or cells: E. coli Rosetta2(DE3)
The test is described as above.
From the text: as §1, §2, §3, §4

The target of test [4] is T3, heIF4E1b (Homo sapiens, UniProt A6NMX2).
T3 construct: made in house; host or cells: E. coli Rosetta2(DE3)
T3 sequence (A6NMX2 1-242): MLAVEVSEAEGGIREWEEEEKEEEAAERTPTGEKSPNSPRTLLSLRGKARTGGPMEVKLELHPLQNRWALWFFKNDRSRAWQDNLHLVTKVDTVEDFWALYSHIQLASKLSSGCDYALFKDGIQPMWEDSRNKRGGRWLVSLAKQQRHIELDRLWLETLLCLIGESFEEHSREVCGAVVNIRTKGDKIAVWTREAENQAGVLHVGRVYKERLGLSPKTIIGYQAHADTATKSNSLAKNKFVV
The description is as above. The following applies: for Kas − glycerol heIF4E1b: equilibrium association constant, buffer without glycerol.
From the text: as §1, §2, §3, §4

Test [5] has as its system heIF4E1b. The test is described as above. The following applies: without glycerol. Further details: species or system human.
From the text: as §1, §2, §3, §4

The test system of another test is XeIF4E1bΔN27. Described as above. The following applies: 10% glycerol; for Kas + glycerol XeIF4E1bΔN27: equilibrium association constant. Further details: species or system Xenopus laevis.
From the text: as §1, §2, §3, §4

The target in a further test is T4, X4E1a1 (E101S) (Xenopus laevis, UniProt P48597, E101S).
T4 construct: made in house; host or cells: E. coli Rosetta2(DE3)
The experiment in a line: fluorescence titration, XeIF4E1a mutant. Type of test: binding. The following applies: mutant (E101S) of XeIF4E1a.
From the text: (§5) We tested the effect on cap-binding activity of these positions in the fluorescence assay with six mutated recombinant versions of Xenopus eIF4E1a (Fig. S4). The amino acids were introduced in XeIF4E1a sequentially in the order: E101S/K102R/S195A/M82S/T206L/T207S (numbering of the XeIF4E1a sequence is shifted backward by 4 amino acids relative to XeIF4E1b). […] The biggest contribution to the weaker cap binding of XeIF4E1a, in each case about 20%, resulted from changing Glu101 to Ser and Thr206 to Leu coupled with Thr207 to Ser, with the remaining mutations having only minor effects. […] Glu101 is a solvent-accessible amino acid and is proximal to Trp98 in the S3-S4 loop. […] Attenuation of the cap-binding affinity of XeIF4E1a resulting from mutating Thr206 and Thr207 is consistent with our results mentioned above showing significant influence of C-terminal loop residues on binding phosphate and the second nucleotide.
(§6) For human eIF4E1a and eIF4E1b and also for Xenopus eIF4E1a and its mutated forms, measurements were carried out using 0.1 μM protein in 50 mM Hepes/KOH (pH 7.2), 134.5 mM KCl, 0.5 mM EDTA and 1 mM DTT. For Xenopus eIF4E1b(ΔN27), the concentration was 0.2 μM and glycerol was added to the buffer to 10% (v/v) final concentration. […] The gradually increasing concentration of cap analogue quenches protein fluorescence without shifting the spectrum maximum, while at high concentrations, the fluorescence signal of free cap analogue dominates over the fluorescence from other solution components including free eIF4E and eIF4E in complex with cap (Fig. S2a). Fluorescence of measured samples was excited at 280 nm (2.5 nm bandwidth) and detected at 337 nm or 330 nm (4 nm bandwidth), thus reducing the signal originated from the free cap analogues. Measurements were carried out on a LS-55 spectrofluorometer (Perkin Elmer Co.) using freshly prepared proteins, and the fluorescence intensities were corrected for sample dilution and the inner filter effect.
(§7) Equilibrium association constants (Kas) were determined by fitting the theoretical dependence of fluorescence intensity on the total concentration of the cap analogue to the experimental data points, according to the equation described previously (see Ref. [22] and Fig. S2c). […] Along with Kas and the concentration of the active protein [P0^act], other parameters such as fL and ∆f = fPact − fPL are also gained from the fit, where fL represents the fluorescence efficiency of free cap analogue and ∆f represents the difference between the fluorescence efficiencies of the apo-protein and the complex (Fig. S2c).
as §4

The target of another test is T5, X4E1a1’ (K102R) (Xenopus laevis, UniProt P48597, K102R).
T5 construct: made in house; host or cells: E. coli Rosetta2(DE3)
The experiment in a line: fluorescence titration, XeIF4E1a mutant. Type of test: binding. The following applies: mutant (K102R) of XeIF4E1a.
From the text: as §5, §6, §7, §4

The next test has as its target T6, X4E1a2 (E101S/K102R) (Xenopus laevis, UniProt P48597, E101S/K102R).
T6 construct: made in house; host or cells: E. coli Rosetta2(DE3)
The experiment in a line: fluorescence titration, XeIF4E1a mutant. Type of test: binding. The following applies: mutant (E101S/K102R) of XeIF4E1a.
From the text: as §5, §6, §7, §4

In test [6] the target is T7, X4E1a3 (E101S/K102R/S195A) (Xenopus laevis, UniProt P48597, E101S/K102R/S195A).
T7 construct: made in house; host or cells: E. coli Rosetta2(DE3)
The experiment in a line: fluorescence titration, XeIF4E1a mutant. The following applies: mutant (E101S/K102R/S195A) of XeIF4E1a. Type of test: binding.
From the text: as §5, §6, §7, §4

Test [7] has as its target T8, X4E1a4 (E101S/K102R/S195A/M82S) (Xenopus laevis, UniProt P48597, E101S/K102R/M82S/S195A).
T8 construct: made in house; host or cells: E. coli Rosetta2(DE3)
The experiment in a line: fluorescence titration, XeIF4E1a mutant. Type of test: binding. The following applies: mutant (E101S/K102R/S195A/M82S) of XeIF4E1a.
From the text: as §5, §6, §7, §4

The target of test [8] is T9, X4E1a6 (E101S/K102R/S195A/M82S/T206L/T207S) (Xenopus laevis, UniProt P48597, E101S/K102R/M82S/S195A/T206L/T207S).
T9 construct: made in house; host or cells: E. coli Rosetta2(DE3)
The experiment in a line: fluorescence titration, XeIF4E1a mutant. Type of test: binding. The following applies: mutant (E101S/K102R/S195A/M82S/T206L/T207S) of XeIF4E1a.
From the text: as §5, §6, §7, §4

In test [9] the target is T2, heIF4E1a. The arrangement: method as in PMID 17369309. The following applies: equilibrium association constant; buffer without glycerol; footnote b; cited from earlier work.
Another test has as its system in vitro translation. The arrangement: method as in PMID 10387101. The following applies: Cai et al.; read-out: IC50 (inhibitory potency); cited from earlier work.
Where [10] appears, read: change relative to m^7GTP, without glycerol.

Read-outs that look alike come from different tables or passages of the source.

A word on the IC50: it is the concentration needed to halve the response being measured.

T1 sequence (P48597 whole entry): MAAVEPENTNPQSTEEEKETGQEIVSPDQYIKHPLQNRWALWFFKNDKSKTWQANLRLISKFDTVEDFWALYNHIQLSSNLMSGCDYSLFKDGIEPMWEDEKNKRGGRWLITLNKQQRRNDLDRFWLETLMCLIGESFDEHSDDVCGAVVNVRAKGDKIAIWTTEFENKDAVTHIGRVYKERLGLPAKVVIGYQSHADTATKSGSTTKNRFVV
T2 sequence (P06730 whole entry): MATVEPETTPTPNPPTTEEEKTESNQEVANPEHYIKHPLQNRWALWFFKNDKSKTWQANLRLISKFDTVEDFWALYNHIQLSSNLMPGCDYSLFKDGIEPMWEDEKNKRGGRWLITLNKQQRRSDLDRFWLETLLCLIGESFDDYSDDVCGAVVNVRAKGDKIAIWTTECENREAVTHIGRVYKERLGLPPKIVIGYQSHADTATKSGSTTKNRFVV
T7 sequence (P48597 whole entry E101S/K102R/S195A): as the sequence (P48597 whole entry) above, with E101S, K102R, S195A counted along it
T9 sequence (P48597 whole entry M82S/E101S/K102R/S195A/T206L/T207S): as the sequence (P48597 whole entry) above, with M82S, E101S, K102R, S195A, T206L, T207S counted along it
T8 sequence (P48597 whole entry M82S/E101S/K102R/S195A): as the sequence (P48597 whole entry) above, with M82S, E101S, K102R, S195A counted along it
T6 sequence (P48597 whole entry E101S/K102R): as the sequence (P48597 whole entry) above, with E101S, K102R counted along it
T5 sequence (P48597 whole entry K102R): as the sequence (P48597 whole entry) above, with K102R counted along it
T4 sequence (P48597 whole entry E101S): as the sequence (P48597 whole entry) above, with E101S counted along it

`Cn1c[n+]([C@@H]2O[C@H](COP(=O)(O)OP(=O)(O)OP(=O)(O)OP(=O)(O)O)[C@@H](O)[C@H]2O)c2nc(N)[nH]c(=O)c21` [m^7Gp4]: at XeIF4E1a [1] (10% glycerol), the “Kas + glycerol XeIF4E1a” value is 151.1 ± 8.6 μM^− 1. Moreover, the “Kas − glycerol XeIF4E1a” value on XeIF4E1a [1] came to 268 ± 10 μM^− 1. For the same molecule, the “Ratio Kas (h4E1a) to Kas (X4E1a)” value in the test on XeIF4E1a [2] was 1.57. The “Kas − glycerol heIF4E1a” value at heIF4E1a [3] (equilibrium association constant, buffer without glycerol) was determined as 419 ± 23 μM^− 1. For the same molecule, the “Kas − glycerol heIF4E1b” value on heIF4E1b [4] was 89.6 ± 4.0 μM^− 1. Further, the “Ratio Kas (h4E1a) to Kas (h4E1b)” value with heIF4E1b [5] is on record as 4.68. Moreover, in the test on XeIF4E1bΔN27, the “Ratio Kas (X4E1a) to Kas (X4E1bΔN27)” value came to 3.51 and the “Kas + glycerol XeIF4E1bΔN27” value is on record as 43.0 ± 2.0 μM^− 1. The “Kas X4E1a1” value on X4E1a1 (E101S) turned out to be 218 ± 39 µM⁻¹. Also, the “Kas X4E1a1’” value at X4E1a1’ (K102R) is 232.5 ± 8.3 µM⁻¹. Also, the “Kas X4E1a2” value at X4E1a2 (E101S/K102R) came out at 202.5 ± 6.7 µM⁻¹. In test [6], the “Kas X4E1a3” value came out at 170 ± 24 µM⁻¹. For the same molecule, the “Kas X4E1a4” value in [7] came to 206 ± 12 µM⁻¹. The “Kas X4E1a6” value in test [8] was 143 ± 8 µM⁻¹.
Take `Cn1c[n+]([C@@H]2O[C@H](COP(=O)(O)OP(=O)(O)OP(=O)(O)OC[C@H]3O[C@@H](n4cnc5c(N)ncnc54)[C@H](O)[C@@H]3O)[C@@H](O)[C@H]2O)c2nc(N)[nH]c(=O)c21` [m^7GpppA]: the “ΔΔG^o + glycerol XeIF4E1a” value on XeIF4E1a [1] (change relative to m^7GTP, 10% glycerol) was found to be 1.717 ± 0.033 kcal/mol. Also, the “ΔΔG^o − glycerol XeIF4E1a” value at XeIF4E1a [1] (setting [10]) was found to be 1.779 ± 0.029 kcal/mol. In addition, at XeIF4E1a [1] (10% glycerol), the “Kas + glycerol XeIF4E1a” value was determined as 1.22 ± 0.053 μM^− 1. Moreover, on XeIF4E1a [1], the “Kas − glycerol XeIF4E1a” value came to 2.015 ± 0.028 μM^− 1. Moreover, the “Ratio Kas (h4E1a) to Kas (X4E1a)” value in the test on XeIF4E1a [2] is reported as 1.97. In addition, on heIF4E1a [3] (setting [10]), the “ΔΔG^o − glycerol heIF4E1a” value is recorded as 1.658 ± 0.053 kcal/mol. In addition, the “ΔΔG^o − glycerol heIF4E1b” value at heIF4E1b [4] (setting [10]) is given as 1.352 ± 0.039 kcal/mol. For the same molecule, the “Kas − glycerol heIF4E1b” value at heIF4E1b [4] came out at 2.158 ± 0.053 μM^− 1. Further, in the test with heIF4E1b [5], the “Ratio Kas (h4E1a) to Kas (h4E1b)” value is 1.84. Further, in the test on XeIF4E1bΔN27, the “Ratio Kas (X4E1a) to Kas (X4E1bΔN27)” value is 1.99 and the “Kas + glycerol XeIF4E1bΔN27” value was 0.615 ± 0.042 μM^− 1. Besides, the “ΔΔG^o + glycerol XeIF4E1bΔN27” value in the test on XeIF4E1bΔN27 (change relative to m^7GTP) is recorded as 1.479 ± 0.050 kcal/mol. The “Kas X4E1a3” value in [6] came to 1.57 ± 0.21 µM⁻¹. The “Kas X4E1a4” value in [7] was found to be 1.48 ± 0.11 µM⁻¹. The “Kas X4E1a6” value in test [8] was found to be 1.33 ± 0.11 µM⁻¹. The “Kas − glycerol heIF4E1a” value on heIF4E1a [9] was 3.97 ± 0.21 ^b μM^− 1.
In the case of `Nc1nc2c(c(=O)[nH]1)n(Cc1ccc(Cl)cc1)c[n+]2[C@@H]1O[C@H](COP(=O)([O-])OP(=O)(O)O)[C@@H](O)[C@H]1O` [p-Cl-bn^7GDP], the IC50 in the test on in vitro translation is 6.76 µM.
As to `Nc1nc2c(c(=O)[nH]1)[n+](Cc1ccc(Cl)cc1)cn2[C@@H]1O[C@H](COP(=O)([O-])O)[C@@H](O)[C@H]1O` [p-Cl-bn^7GMP], the IC50 with in vitro translation is 51 µM.

The values above are taken from publication PMC4306533, “Distinct Features of Cap Binding by eIF4E1b Proteins” (Journal of Molecular Biology, 2015).
